Experimental data: patent US8648076B2, “Cysteine protease inhibitors and their therapeutic applications” (Hybrigenics SA, priority 2005, dated 2014)
Where two headings read alike, the source gives them in different places.

Legend:
USP7 = target: T1, USP7 (Homo sapiens, UniProt Q93009); assay: USP7 activity assay; assay type: biochemical
T1 construct: His tag (from pFastBac-HT vector) (N); made in house; host or cells: insect cells (Sf9 or High Five), baculovirus

[1] = tested on: HCT116 colon cancer cells; assay: HCT116 cell viability and proliferation assay (MTS); assay type: cell-based; details: Homo sapiens, read-out: HCT116 D3 GI50
Uch-L3 = target: T2, Uch-L3 (Homo sapiens, UniProt P15374); assay: UCH-L3 activity assay; assay type: biochemical; details: 400 nM Ub-AMC, 13 pM enzyme, 30 min pre-incubation at 25° C., 60 min at 37° C.; sigmoidal fit; AF: Autofluorescent; read-out: Uch-L3 (inhibition of cysteine protease activity)
T2 sequence (P15374 1-230): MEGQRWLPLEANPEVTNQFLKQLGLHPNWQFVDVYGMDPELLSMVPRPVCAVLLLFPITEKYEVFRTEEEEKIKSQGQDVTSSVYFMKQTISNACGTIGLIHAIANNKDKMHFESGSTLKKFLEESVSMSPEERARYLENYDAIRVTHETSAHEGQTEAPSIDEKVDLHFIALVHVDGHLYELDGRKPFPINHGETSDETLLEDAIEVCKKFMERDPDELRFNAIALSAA
Procedure, shortened: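 Compounds were pre-incubated with 13 pM Uch-L3 for 30 min at 25° C in pH 7.6 buffer with 0.05 mg/ml BSA. Reactions ran 60 min at 37° C with 400 nM Ub-AMC, were stopped with 100 mM acetic acid, and AMC fluorescence was read. Duplicates were expressed as % of no-compound control and fitted to a variable-slope sigmoid.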

USP5 = target: T3, USP5 (Homo sapiens, UniProt P45974); assay: USP5 activity assay; assay type: biochemical; details: 400 nM Ub-AMC, 300 pM enzyme, 30 min pre-incubation at 25° C., 60 min at 37° C.; sigmoidal fit; AF: Autofluorescent; read-out: USP 5 (inhibition of cysteine protease activity)
T3 sequence (P45974 1-858): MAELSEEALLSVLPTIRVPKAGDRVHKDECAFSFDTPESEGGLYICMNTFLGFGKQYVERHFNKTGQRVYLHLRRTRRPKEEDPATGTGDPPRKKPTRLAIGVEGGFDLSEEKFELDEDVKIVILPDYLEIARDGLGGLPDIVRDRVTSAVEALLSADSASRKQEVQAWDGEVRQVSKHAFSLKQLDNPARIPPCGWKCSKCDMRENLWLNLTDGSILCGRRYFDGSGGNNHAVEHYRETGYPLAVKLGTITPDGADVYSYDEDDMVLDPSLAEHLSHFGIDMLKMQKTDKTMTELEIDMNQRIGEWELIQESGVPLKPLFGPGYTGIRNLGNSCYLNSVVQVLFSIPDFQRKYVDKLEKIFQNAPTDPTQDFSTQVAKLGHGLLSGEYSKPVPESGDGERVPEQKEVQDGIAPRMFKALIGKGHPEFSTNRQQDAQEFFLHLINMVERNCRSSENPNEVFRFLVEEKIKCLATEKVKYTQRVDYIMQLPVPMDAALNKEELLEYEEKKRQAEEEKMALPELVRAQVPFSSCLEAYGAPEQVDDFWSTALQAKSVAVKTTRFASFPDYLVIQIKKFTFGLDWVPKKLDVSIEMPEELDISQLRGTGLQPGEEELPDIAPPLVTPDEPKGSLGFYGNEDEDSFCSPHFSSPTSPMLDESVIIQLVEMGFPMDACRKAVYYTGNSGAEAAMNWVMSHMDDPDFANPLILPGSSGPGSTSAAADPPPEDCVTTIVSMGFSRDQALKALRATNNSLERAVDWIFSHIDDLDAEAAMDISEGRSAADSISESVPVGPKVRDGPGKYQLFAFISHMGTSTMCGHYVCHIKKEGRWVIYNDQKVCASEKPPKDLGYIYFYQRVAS
Procedure: Bovine Serum Albumin 0.05 mg·ml^−1 pH7.6). Compounds stocks (100 mM) were stored at −20° C. in DMSO. […] Reactions were performed as duplicates in Black LJL 96 well plates (HE microplates; Molecular Devices; 20 μl final reaction volume). The substrate concentration for USP5 was 400 nM Ub-AMC (Boston Biochem). The concentrations of the enzyme (USP5) in specificity assays was 300 pM. The concentrations were determined in order to perform specificity assays under initial velocities at fixed substrate concentration. Compounds were pre-incubated with enzymes for 30 minutes at 25° C. Reactions were initiated by addition of substrate to the plates containing the enzymes (+/− compounds) diluted in assay buffer. Reactions were incubated for 60 minutes at 37° C. Reactions were stopped by adding acetic acid (100 mM final). Readings were performed on a Pherastar Fluorescent Reader (BMG). λ Emission 380 nm; λ Excitation=460 nm. Data (mean values +/− standard deviation) were analyzed as % of control (no compound) and plotted as percentage versus the Log of the compound concentration using GraphPad (Prism). Data were fitted to a sigmoidal model (variable slope).

[2] = tested on: PC-3 prostate cancer cells; assay: PC3 cell viability and proliferation assay (MTS); assay type: cell-based; details: Homo sapiens, PC-3, 72 h, read-out: PC3 D3 GI50
[3] = 400 nM Ub-AMC, 152 pM enzyme, 30 min pre-incubation at 25° C., 60 min at 37° C., sigmoidal fit, read-out: USP 7 (inhibition of cysteine protease activity)
[4] = HCT-116, HCT116 cells, 72 hours incubation, MTS, mean of 3 independent experiments
[5] = PC3 cells, 72 hours incubation, MTS, mean of 3 independent experiments

T1 sequence (Q93009 whole entry): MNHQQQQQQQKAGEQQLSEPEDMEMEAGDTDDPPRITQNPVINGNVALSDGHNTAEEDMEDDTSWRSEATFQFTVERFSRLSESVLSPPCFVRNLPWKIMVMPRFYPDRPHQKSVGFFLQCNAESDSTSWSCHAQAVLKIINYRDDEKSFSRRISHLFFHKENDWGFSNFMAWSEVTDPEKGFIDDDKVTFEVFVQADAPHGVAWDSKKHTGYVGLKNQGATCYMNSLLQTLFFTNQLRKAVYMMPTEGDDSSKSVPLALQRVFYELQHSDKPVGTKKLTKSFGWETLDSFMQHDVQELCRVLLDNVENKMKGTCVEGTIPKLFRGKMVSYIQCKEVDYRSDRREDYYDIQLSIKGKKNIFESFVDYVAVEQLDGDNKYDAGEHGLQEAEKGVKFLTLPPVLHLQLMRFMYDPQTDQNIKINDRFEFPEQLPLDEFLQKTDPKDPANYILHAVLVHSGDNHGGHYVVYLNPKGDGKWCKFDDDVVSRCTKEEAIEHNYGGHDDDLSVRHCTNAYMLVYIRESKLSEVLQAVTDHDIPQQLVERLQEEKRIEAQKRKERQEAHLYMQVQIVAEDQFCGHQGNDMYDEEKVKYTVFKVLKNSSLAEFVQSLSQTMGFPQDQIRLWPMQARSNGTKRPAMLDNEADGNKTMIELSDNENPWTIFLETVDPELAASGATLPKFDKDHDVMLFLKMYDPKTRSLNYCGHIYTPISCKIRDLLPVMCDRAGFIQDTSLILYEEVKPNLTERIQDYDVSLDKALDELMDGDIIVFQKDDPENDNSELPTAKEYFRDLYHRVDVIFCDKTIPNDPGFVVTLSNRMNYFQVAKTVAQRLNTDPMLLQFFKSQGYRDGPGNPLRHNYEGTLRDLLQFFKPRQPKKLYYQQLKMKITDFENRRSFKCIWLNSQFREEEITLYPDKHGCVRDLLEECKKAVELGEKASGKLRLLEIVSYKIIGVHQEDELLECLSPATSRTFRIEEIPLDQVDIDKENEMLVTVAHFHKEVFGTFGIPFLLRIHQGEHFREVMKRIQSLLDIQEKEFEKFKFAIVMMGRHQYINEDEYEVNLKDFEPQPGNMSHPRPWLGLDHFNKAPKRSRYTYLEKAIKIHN

| Structure (SMILES) | IC50 (USP7; [3]) | GI50 [1, 4] | IC50 (Uch-L3) | IC50 (USP5) | GI50 [2, 5] | IC50 (USP7) | GI50 ([1]; HCT-116, 72 h) | GI50 [2] |
| --- | --- | --- | --- | --- | --- | --- | --- | --- |
| COc1ccc2c(c1)C(=O)c1nc(C#N)c(C#N)nc1-2 [Example 17i, 7-Methoxy-9-oxo-9H-indeno[1,2-b]pyrazine-2,3-dicarbonitrile] | > 100 µM | 0.56 µM | 3.1 µM | 23 µM | 1.27 µM |  |  |  |
| N#Cc1nc2c(nc1C#N)-c1ccc(O)cc1C2=O [Example 17j, 7-Hydroxy-9-oxo-9H-indeno[1,2-b]pyrazine-2,3-dicarbonitrile] | 66 µM | > 10 µM | 8 µM | > 100 µM | > 10 µM |  |  |  |
| N#Cc1nc2sc3ccccc3c2nc1C#N [Example 19, benzo[4,5]thieno[2,3-b]pyrazine-2,3-dicarbonitrile] | > 100 µM | 10 µM | > 100 µM | > 100 µM | 4.2 µM |  |  |  |
| N#Cc1nc2c(nc1C#N)C(=O)c1ccccc1C2=O [Example 20, 5,10-dioxo-5,10-dihydro-benzo[g]quinoxaline-2,3-dicarbonitrile] |  |  | 39.6 µM | > 100 µM |  | > 100 µM | 0.78 µM | 1.26 µM |
| N#CNc1nc2c(nc1C#N)C(=O)c1ccccc1-2 [Example 21, 2-cyano-9-oxo-9H-indeno[1,2-b]pyrazin-3-yl-cyanamide] | > 100 µM | > 10 µM | > 100 µM | > 100 µM | > 10 µM |  |  |  |
| CCSc1nc2c(nc1C#N)C(=O)c1ccccc1-2 [Example 23, 3-ethylsulfanyl-9-oxo-9H-indeno[1,2-b]pyrazine-2-carbonitrile] | > 100 µM | > 10 µM | 86 µM | > 100 µM | > 10 µM |  |  |  |
| N#Cc1nc2c(nc1CC(N)=O)-c1ccccc1C2=O [Example 26, 2-(2-cyano-9-oxo-9H-indeno[1,2-b]pyrazin-3-yl)-acetamide] |  |  | 1.6 µM | 60 µM |  | > 100 µM | > 10 µM | > 10 µM |
| N#Cc1nc2c(nc1C#N)-c1ccccc1C2=NOCCOc1ccccc1 [Example 27a, 9-(2-Phenoxy-ethoxyimino)-9H-indeno[1,2-b]pyrazine-2,3-dicarbonitrile] |  |  | 10.5 µM | > 100 µM |  | > 100 µM | 0.549 µM | 1 µM |
| N#Cc1nc2c(nc1C#N)-c1ccc(Cl)cc1C2=NOCCOc1ccccc1 [Example 27b, 7-Chloro-9-(2-phenoxy-ethoxyimino)-9H-indeno[1,2-b]pyrazine-2,3-dicarbonitrile] |  |  | 1.7 µM | > 100 µM |  | > 100 µM | 0.294 µM | 0.259 µM |
| C=CCON=C1c2ccc(Cl)cc2-c2nc(C#N)c(C#N)nc21 [Example 27c, 9-Allyloxyimino-6-chloro-9H-indeno[1,2-b]pyrazine-2,3-dicarbonitrile] |  |  | 0.502 µM | 1.7 µM |  | 3.5 µM | 0.421 µM | 0.803 µM |
| Cc1c(F)ccc2c1C(=O)c1nc(C#N)c(C#N)nc1-2 [Example 30, 7-Fluoro-8-methyl-9-oxo-9H-indeno[1,2-b]pyrazine-2,3-dicarbonitrile] | 2.22 µM | 0.705 µM | 0.339 µM | 1.61 µM | 0.854 µM |  |  |  |
| N#Cc1nc2c(nc1C#N)-c1cc(Cl)c(Cl)cc1C2=O [Example 31, 6,7-dichloro-9-oxo-9H-indeno[1,2-b]pyrazine-2,3-dicarbonitrile] |  |  | 0.104 µM | 0.329 µM |  | 0.591 µM | 0.753 µM | 2.43 µM |
| CCc1ccc2c(c1)-c1nc(C#N)c(C#N)nc1C2=O [Example 32, 6-ethyl-9-oxo-9H-indeno[1,2-b]pyrazine-2,3-dicarbonitrile] |  |  | 0.258 µM | 1.67 µM |  | 2.59 µM | 0.385 µM | 1.43 µM |
| C=CCON=C1c2ccccc2-c2nc(C(N)=O)c(C#N)nc21 [Example 34a, 9-Allyloxyimino-2-cyano-9H-indeno[1,2-b]pyrazine-3-carboxylic acid amide] |  |  | 0.032 µM | 0.143 µM |  | 0.5 µM | 0.496 µM | 0.511 µM |
| CCON=C1c2ccccc2-c2nc(C(N)=O)c(C#N)nc21 [Example 34b, 2-Cyano-9-ethoxyimino-9H-indeno[1,2-b]pyrazine-3-carboxylic acid amide] |  |  | 0.099 µM | 0.523 µM |  | 2.51 µM | 0.469 µM | 0.479 µM |
| COCCON=C1c2ccccc2-c2nc(C(N)=O)c(C#N)nc21 [Example 34c, 2-Cyano-9-(2-methoxy-ethoxyimino)-9H-indeno[1,2-b]pyrazine-3-carboxylic acid amide] |  |  | 0.109 µM | 0.606 µM |  | 2.88 µM | 0.378 µM | 0.362 µM |
| CON=C1c2ccccc2-c2nc(C(N)=O)c(C#N)nc21 [Example 34d, 2-Cyano-9-methoxyimino-9H-indeno[1,2-b]pyrazine-3-carboxylic acid amide] |  |  | 0.037 µM | 0.113 µM |  | 0.396 µM | 0.916 µM | 1.2 µM |
| N#Cc1nc2c(nc1O)-c1ccc(Cl)cc1C2=O [Example 42, 7-chloro-3-hydroxy-9-oxo-9H-indeno[1,2-b]pyrazine-2-carbonitrile] |  |  | > 100 µM | > 100 µM |  | > 100 µM | > 10 µM | > 10 µM |
| N#Cc1nc2c(nc1C#N)-c1ccc(Cl)cc1C2=NNC(N)=O [Example 43, 9-[(aminocarbonyl)hydrazono]-7-chloro-9H-indeno[1,2-b]pyrazine-2,3-dicarbonitrile] |  |  | 13.5 µM | > 100 µM |  | > 100 µM | 0.512 µM | 0.655 µM |
